# Results: US20230123135A1 (priority 2020, published 2023)
# “Also recorded” adds a separate entry of the source. Like-named read-outs stand apart in the source and are kept apart here.
# Key:
# [1] = tested on: TNF-α; assay: animal or person; format: in vivo, Mus musculus (BALB/c); parameters: TNF-α production in BALF: unit not given here; conditions: for inhibition of TNF-α production at 3 mg/kg: Mus musculus, read-out: inhibitory rate of TNF-α production (negative control as 100%)
# [2] = tested on: IL-6; assay: animal or person; format: in vivo, Mus musculus (BALB/c); conditions: for inhibition of IL-6 production (%) at 3 mg/kg: Mus musculus, read-out: inhibitory rate of IL-6 production (negative control as 100%)
# [3] = tested on: IL-1β; assay: animal or person; format: in vivo, Mus musculus (BALB/c); conditions: for Inhibition rate of IL-1β production (%) at 3 mg/kg: Mus musculus, read-out: inhibitory rate of IL-1β production (negative control as 100%); for IL-1 beta Mean AUC (baseline-adjusted): mouse, in vivo
# [4] = tested on: primary rat peritoneal macrophages
# [5] = tested on: SARS-CoV-2; assay: microbe, parasite or virus in culture; format: cell-based; conditions: for IC50: read-out: IC50, inhibition of SARS-CoV-2 infection
# [6] = in vitro; conditions: African green monkey
# [7] = tested on: primary rat peritoneal macrophages; remark: listed apart in the source
# [8] = tested on: TNF-α; format: cell-based, rat; conditions: 24 h, LPS 100 ng/mL; read-out: IC50, secretion of TNF-α
# [9] = tested on: IL-1β; format: cell-based, rat
# [10] = tested on: IL-6; format: cell-based, rat
# [11] = tested on: NO production; format: cell-based, mouse; conditions: read-out: IC50 for inhibition of NO production
# [12] = tested on: PGE2 production; format: cell-based, mouse
# [13] = tested on: iNOS; format: cell-based, mouse
# [14] = tested on: COX-2; format: cell-based, mouse
# [15] = tested on: TNF-α; format: cell-based, mouse
# [16] = tested on: IL-1β; format: cell-based, mouse
# [17] = tested on: iNOS mRNA; format: cell-based, mouse
# [18] = tested on: COX-2 mRNA; format: cell-based, mouse
# [19] = tested on: TNF-α mRNA; format: cell-based, mouse
# [20] = tested on: IL-1β mRNA; format: cell-based, mouse
# [21] = tested on: IFN-β mRNA; format: cell-based, mouse
# [22] = tested on: NF-κB transcriptional activity; format: cell-based, mouse
# [23] = tested on: NF-κB; assay: Western blot, NF-κB (p50, p65) protein in RAW264.7 macrophages; format: cell-based, mouse; conditions: 2.5-10 μM 30 min pretreatment, LPS 1 μg/mL 15 min
# [24] = tested on: IκB; assay: Western blot, IκB degradation in RAW264.7 macrophages; format: cell-based, mouse; conditions: 2.5-10 μM 30 min pretreatment, LPS 1 μg/mL 15 min
# [25] = tested on: SARS-CoV-2 infection; parameters: species or system person; conditions: in vivo
# [26] = tested on: Vero cells
# [27] = in vivo
# [28] = tested on: human telomerase; conditions: cited from earlier work
# [29] = Severe acute respiratory syndrome coronavirus 2, Vero, 24 h
# [30] = 3 μM, in the absence of significant cell death
compound,measurement,setting,value
C[C@@H]1C[C@H]2[C@@H]3CCC4=CC(=O)C=C[C@]4(C)[C@@]3(F)[C@@H](O)C[C@]2(C)[C@@]1(O)C(=O)CO [Dexamethasone],inhibition of TNF-α production at 3 mg/kg,[1]; 1 h,25%
same,inhibition of TNF-α production at 3 mg/kg,[1]; 2 h,28%
same,inhibition of TNF-α production at 3 mg/kg,[1]; 4 h,33%
same,inhibition of TNF-α production at 3 mg/kg,[1]; 6 h,28%
same,inhibition of TNF-α production at 3 mg/kg,[1]; 12 h,9%
same,TNF-alpha Mean AUC (baseline-adjusted),"[1]; mouse, in vivo",2815.4 pg·h/mL
same,inhibition of IL-6 production (%) at 3 mg/kg,[2]; 1 h,59%
same,inhibition of IL-6 production (%) at 3 mg/kg,[2]; 2 h,43%
same,inhibition of IL-6 production (%) at 3 mg/kg,[2]; 4 h,59%
same,inhibition of IL-6 production (%) at 3 mg/kg,[2]; 6 h,20%
same,inhibition of IL-6 production (%) at 3 mg/kg,[2]; 12 h,16%
same,inhibition of IL-6 production (%) at 3 mg/kg,[2]; 24 h,51%
same,IL-6 Mean AUC (baseline-adjusted),"[2]; mouse, in vivo",54684.9 pg·h/mL
same,Inhibition rate of IL-1β production (%) at 3 mg/kg,[3]; 4 h,69%
same,Inhibition rate of IL-1β production (%) at 3 mg/kg,[3]; 6 h,67%
same,Inhibition rate of IL-1β production (%) at 3 mg/kg,[3]; 12 h,77%
same,IL-1 beta Mean AUC (baseline-adjusted),[3],2637.5 pg·h/mL
"C[C@@H]1CC[C@@]2(OC1)O[C@H]1[C@@H](O)[C@H]3[C@@H]4CC[C@H]5C[C@@H](O[C@@H]6O[C@H](CO)[C@H](O[C@@H]7O[C@H](CO)[C@@H](O)[C@H](O[C@@H]8OC[C@@H](O)[C@H](O)[C@H]8O)[C@H]7O[C@@H]7O[C@H](CO)[C@H](O)[C@H](O[C@@H]8O[C@H](CO)[C@@H](O)[C@H](O)[C@H]8O)[C@H]7O)[C@H](O)[C@H]6O)[C@H](O)C[C@]5(C)[C@H]4CC[C@]3(C)[C@H]1[C@@H]2C [Digitonin, reference compound]",cytotoxicity (CytoTox-GLO) compared with vehicle,[4],high toxicity
Cc1cccc(C)c1OCC(=O)N[C@@H](Cc1ccccc1)[C@@H](O)C[C@H](Cc1ccccc1)NC(=O)[C@H](C(C)C)N1CCCNC1=O [lopinavir],"Selectivity index (SI), CC50/IC50",[5],3.81
same,IC50,[5]; [29],13.1 µM
same,CC50,[6],> 50 µM
CCC(CC)COC(=O)[C@H](C)N[P@](=O)(OC[C@H]1O[C@@](C#N)(c2ccc3c(N)ncnn23)[C@H](O)[C@@H]1O)Oc1ccccc1 [remdesivir],IC50,[5]; [29],5.27 µM
same,CC50,[6],> 50 µM
Triton-X [reference compound],cell viability (MTT) compared with vehicle,[7],low cell viability
sodium meta-arsenite [SMA],IC50,[8],2.3 µM
same,secretion of IL-1β,[9]; [30],complete inhibition
same,IC50,"[9]; 24 h, LPS 100 ng/mL, read-out: IC50, secretion of IL-1β",0.8 µM
same,secretion of IL-6,[10]; [30],complete inhibition
same,IC50,"[10]; 24 h, LPS 100 ng/mL, read-out: IC50, secretion of IL-6",0.5 µM
same,IC50,[11],~2.87 µM
same,inhibition of PGE2 production,[12],20%
same,iNOS protein expression,[13],significantly inhibited
same,COX-2 protein expression,[14],slightly inhibited
same,TNF-α protein expression,[15],significantly inhibited
same,IL-1β protein expression,[16],significantly inhibited
same,iNOS mRNA expression,[17],significantly inhibited
same,COX-2 mRNA expression,[18],not influenced
same,mRNA level of TNF-α,[19],significantly decreased
same,expression of IL-1β mRNA,[20],no effect
same,expression of IFN-β mRNA,[21],no effect
same,LPS-induced SEAP expression (NF-κB transcriptional activity),[22],inhibited LPS-induced SEAP expression significantly
same,NF-κB protein level,[23],markedly decreased
same,IκB degradation,[24],markedly inhibited
same,TNF-α production in BALF,"[1]; mouse, in vivo",794
same,TNF-alpha Mean AUC (baseline-adjusted),"[1]; mouse, in vivo, 1.03 mg/kg",7984.4 pg·h/mL
same,TNF-alpha Mean AUC (baseline-adjusted),"[1]; mouse, in vivo, 1.54 mg/kg",6064.8 pg·h/mL
same,TNF-alpha Mean AUC (baseline-adjusted),"[1]; mouse, in vivo, 2.05 mg/kg",4215.8 pg·h/mL
same,inhibitory rate of IL-6 production (negative control as 100%),"[2]; mouse, in vivo",60%
same,IL-6 Mean AUC (baseline-adjusted),"[2]; mouse, in vivo, 1.03 mg/kg",165404.0 pg·h/mL
same,IL-6 Mean AUC (baseline-adjusted),"[2]; mouse, in vivo, 1.54 mg/kg",128034.8 pg·h/mL
same,IL-6 Mean AUC (baseline-adjusted),"[2]; mouse, in vivo, 2.05 mg/kg",78963.1 pg·h/mL
same,IL-1 beta Mean AUC (baseline-adjusted),[3]; 1.03 mg/kg,4272.9 pg·h/mL
same,IL-1 beta Mean AUC (baseline-adjusted),[3]; 1.54 mg/kg,3738.3 pg·h/mL
same,IL-1 beta Mean AUC (baseline-adjusted),[3]; 2.05 mg/kg,3045.8 pg·h/mL
same,IC50,[5],4.25 µM
same,symptoms of SARS-CoV-2 infection after taking SMA,[25],effective in alleviating or treating the symptoms of SARS-CoV-2 infection; also recorded: Chest tightness and pain relieved; also recorded: Temporary relief of symptoms
same,cytotoxicity (CytoTox-GLO) compared with vehicle,"[4]; 24 h, LPS 100 ng/mL",concentration-dependent increase in cytotoxicity
same,cell viability (MTT) compared with vehicle,"[7]; 24 h, LPS 100 ng/mL",concentration-dependent decrease in viability
same,IC50,"[7]; read-out: IC50 for cell viability, 24 h, LPS 100 ng/mL, MTT",5.7 µM
same,CC50,[26],21.1 µM
same,time until fully metabolised and excreted from the body after taking it,[27],72 h
same,inhibition of human telomerase,[28],potent inhibitor
